Assay results as given in ChEMBL document CHEMBL5537212, “Benzodioxane Carboxamide Derivatives As Novel Monoamine Oxidase B Inhibitors with Antineuroinflammatory Activity” (ACS Med Chem Lett, 2024).

Experiments:
[1] = biological target: T1, Amine oxidase [flavin-containing] B (Homo sapiens, UniProt P27338); experiment: Inhibition of recombinant human MAO-B using benzylamine as substrate at 1 uM incubated for 20 mins by fluorescence microplate reader analysis relative to control; settings: read-out: INH
T1 sequence (P27338 whole entry): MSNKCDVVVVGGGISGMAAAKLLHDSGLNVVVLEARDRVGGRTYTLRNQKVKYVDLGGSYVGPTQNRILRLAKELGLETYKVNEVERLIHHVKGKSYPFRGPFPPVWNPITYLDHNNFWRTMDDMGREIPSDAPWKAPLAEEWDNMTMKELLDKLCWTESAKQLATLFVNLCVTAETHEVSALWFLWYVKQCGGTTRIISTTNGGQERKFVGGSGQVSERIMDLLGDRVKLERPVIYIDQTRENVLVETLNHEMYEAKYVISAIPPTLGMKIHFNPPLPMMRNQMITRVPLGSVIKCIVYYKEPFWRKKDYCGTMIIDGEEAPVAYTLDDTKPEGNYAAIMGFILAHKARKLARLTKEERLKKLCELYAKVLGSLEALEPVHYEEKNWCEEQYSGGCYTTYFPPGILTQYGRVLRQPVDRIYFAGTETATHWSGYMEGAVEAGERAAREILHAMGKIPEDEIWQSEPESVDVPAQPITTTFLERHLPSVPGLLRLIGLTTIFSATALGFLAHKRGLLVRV

[2] = biological target: T2, Amine oxidase [flavin-containing] A (Homo sapiens, UniProt P21397)
T2 sequence (P21397 whole entry): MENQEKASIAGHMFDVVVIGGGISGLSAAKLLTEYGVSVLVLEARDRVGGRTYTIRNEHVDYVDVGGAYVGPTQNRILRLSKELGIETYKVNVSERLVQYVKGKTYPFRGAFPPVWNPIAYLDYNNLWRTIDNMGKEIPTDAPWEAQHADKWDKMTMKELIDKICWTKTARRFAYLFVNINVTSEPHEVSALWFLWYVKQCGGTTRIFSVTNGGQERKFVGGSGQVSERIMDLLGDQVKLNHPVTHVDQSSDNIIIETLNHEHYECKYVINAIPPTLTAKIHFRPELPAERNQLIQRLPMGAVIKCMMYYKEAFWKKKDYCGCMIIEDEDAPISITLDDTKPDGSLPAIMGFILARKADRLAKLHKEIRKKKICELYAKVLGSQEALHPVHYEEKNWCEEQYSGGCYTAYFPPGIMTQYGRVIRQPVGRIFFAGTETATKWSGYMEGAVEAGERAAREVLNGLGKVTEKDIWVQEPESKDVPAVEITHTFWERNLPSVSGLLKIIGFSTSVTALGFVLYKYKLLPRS
Description: Inhibition of recombinant human MAO-A incubated for 15 mins by Amplex Red reagent and horseradish peroxidase based fluorescence microplate reader analysis

[3] = biological target: T2, Amine oxidase [flavin-containing] A; experiment: Inhibition of recombinant human MAO-A at 0.1 uM incubated for 15 mins by Amplex Red reagent and horseradish peroxidase based fluorescence microplate reader analysis relative to control; settings: 0.25 h

Row | Compound | inhibition at 1 µM [1] [%] | IC50 [2] [µM] | inhibition at 0.1 µM [3] [%]
1 | O=C(Nc1ccccc1)c1ccc2c(c1)OCO2 | < 5 | > 40 | 
2 | COc1ccc(NC(=O)c2ccc3c(c2)OCCO3)cc1OC | < 5 | > 40 | 
3 | COc1cccc(NC(=O)c2ccc3c(c2)OCCO3)c1 | 19.7 | > 40 | 
4 | O=C(NCc1ccccc1)c1ccc2c(c1)OCCO2 | < 5 | > 40 | 
5 | O=C(Nc1cccc(Cl)c1)c1ccccc1 | < 5 | > 40 | 
6 | O=C(Nc1ccc2c(c1)OCCO2)c1ccc(Cl)c(Cl)c1 | 30.8 | > 40 | 
7 | O=C(Nc1ccccc1Cl)c1ccc2c(c1)OCCO2 | < 5 | > 40 | 
8 | O=C(Nc1cccc(Cl)c1Cl)c1ccc2c(c1)OCCO2 | 53 | > 40 | 
9 | O=C(Nc1ccc2c(c1)OCCO2)c1ccc2c(c1)OCCO2 | 36.1 | > 40 | 
10 | COc1ccc(NC(=O)c2ccc3c(c2)OCCO3)cc1Cl | 27.4 | > 40 | 
11 | COc1ccc(NC(=O)c2ccc3c(c2)OCCO3)cc1 | < 5 | > 40 | 
12 | O=C(Nc1ccc2[nH]ncc2c1)c1ccc2c(c1)OCCO2 | 13.8 | > 40 | 
13 | O=C(Nc1ccccc1F)c1ccc2c(c1)OCCO2 | 19.1 | > 40 | 
14 | O=C(Nc1ccc(Br)cc1)c1ccc2c(c1)OCCO2 |  | > 40 | 
15 | O=C(Nc1ccc(Cl)c(Cl)c1)c1ccccc1 | 40.2 | > 40 | 
16 | C#CCN(C)CCCOc1ccc(Cl)cc1Cl [CLORGILINE] |  |  | 79.9
17 | O=C(Nc1ccccc1)c1ccccc1 [N-PHENYLBENZAMIDE] | < 5 | > 40 | 
